What was measured:
advanced hepatic cancer = settings: clinical trials, advanced hepatic cancer (Non-Patent Document 1); cited from earlier work
Huh7 cells = test: MTT cell viability assay, Huh7; format: cell-based; settings: 72 hours
Experimental: (§1) The hepatic cancer cell lines Hep3B and Huh7 (hereafter, referred to as “Hep3B cells” and “Huh7 cells,” respectively, according to need) were purchased from the Japanese Cancer Resources Bank (Tokyo, Japan). The cells were maintained in Dulbecco's Modified Eagle's Medium supplemented with 10% FBS, 1% non-essential amino acid, 1% penicillin/streptomycin, and amphotericin B (0.5 μg/ml). The cells were cultured in accordance with a conventional technique in a humidified 5% CO2 incubator at 37° C. When the cells reached subconfluency, they were pretreated in a medium containing 0.1% dialyzed FBS for 24 hours before experimentation and then subjected to experimentation. […]
(§2) The hepatic cancer cell lines Hep3B and Huh7 were cultured in the presence or absence of Ad-LacZ or Ad-REIC for 72 hours. Cell viability was evaluated via MTT assays. […] Mitochondrial activity reflecting cell viability was evaluated by measuring the absorbance at 570 nm using a microplate reader. […]
(§3) Hep3B cells and Huh7 cells were cultured in the presence or absence of Cisplatin (1 μg/ml) for 72 hours and in the presence or absence of Ad-Lac Z (MOI of 50) or Ad-REIC (MOI of 50). Cell viability was evaluated by the MTT assays described above. […]

[1] = test system: mouse hepatocellular cancer cell line Hep1-6 allograft; test: Tumor growth assay in allograft mouse model (Hep1-6), Ad-REIC with Cisplatin; format: in vivo, C57BL/6 mice; settings: Ad-REIC 1.0×10^9 pfu intratumorally Days 14, 16, Cisplatin 1 mg/kg intraperitoneally Days 14, 21, control PBS
Text: C57BL/6 female mice (6- to 8-week-old) were purchased from Japan SLC Inc. and maintained with free access to feeds and water in the SPF environment in Okayama University animal experimentation facility. Mice were adapted to the breeding environment over a period of 1 week or longer before the experimentation was initiated. Mice were bred and treated under the strictly controlled conditions in accordance with the guidelines provided by the institutional animal control committee, Okayama University Medical School.
The mouse hepatocellular cancer cell line Hep1-6 ([…], suspended in 200 μl of PBS) were injected into the right flanks of the C57BL/6 mice (Day 0). When the tumor diameters reached 5 to 10 mm, administration of Ad-REIC and Cisplatin was initiated. Ad-REIC (1.0×10^9 pfu) was administered intratumorally on Days 14 and 16. Cisplatin (1 mg/kg) was administered intraperitoneally on Days 14 and 21. Tumor sizes were measured 2 times a week, and tumor volumes were determined.

[2] = test system: JNK signal transmission pathway (p-ASK1, p-IRE1α, p-JNK, p-c-Jun) in Huh7 cells; test: Immunoblot analysis of the JNK signal transmission pathway; format: cell-based; settings: Huh7, lysates 48 hours after transfection, regardless of the presence or absence of Ad-REIC (MOI of 10)
Experimental: The mechanism of Ad-REIC for apoptosis induction was examined. By performing immunoblotting, activation of signal transmission molecules in the JNK signal transmission pathway by Ad-REIC and Cisplatin was evaluated. Ad-LacZ and Ad-REIC at MOI of 10 each were transfected into the Hep3B cells and the Huh7 cells, and cell lysates were collected 48 hours thereafter. Protein expression of phospho-ASK1 (p-ASK1), phospho-IRE1α (p-IRE1α), phospho-JNK (p-JNK), and phospho-c-Jun (p-c-Jun) β-actin was analyzed via immunoblotting using specific antibodies. Immunoblotting of β-actin was performed to examine equal loading of proteins in the cells.

Hep3B cells = test: MTT cell viability assay, Hep3B; format: cell-based; settings: 72 hours
Experimental: as §1, §2, §3

SMILES | medial survival period (advanced hepatic cancer) [months] | cell viability of Huh7 cells, dependence on amount of Cisplatin (Huh7 cells) | anti-tumor effects (tumor volume) [1] | expression of p-ASK1, p-IRE1α, p-JNK and p-c-Jun (immunoblotting) [2] | cell viability of Hep3B cells, dependence on amount of Cisplatin (Hep3B cells)
CNC(=O)c1cc(Oc2ccc(NC(=O)Nc3ccc(Cl)c(C(F)(F)F)c3)cc2)ccn1 [Sorafenib] | 15.6 | – | – | – | –
N.N.[Cl][Pt][Cl] [Cisplatin] | – | decreased depending on the amount of Cisplatin administered | the tumor volume was decreased, and anti-tumor effects were observed | each such expression was activated | decreased depending on the amount of Cisplatin administered
